Source: US20170014391A1, “SGK1 INHIBITORS FOR TREATMENT OF PROSTATE CANCER” (Sloan-Kettering Institute for Cancer Research, priority 2013, published 2017)
“And” between values parts separate entries of the source, which are not always exact repeats. Equal entries are not always repeated.

Columns and labels:
[1] = system: AR target gene expression; test: AR target gene expression with GR antagonists; format: cell-based
[2] = system: LNCaP/AR xenograft tumors; test: LNCaP/AR xenografts in castrate mice, long-term antiandrogen treatment (pilot cohort); format: in vivo; conditions: for Mean Tumor Volume (mm^3): Day 0: 10 mg/kg oral gavage 5 days a week, start of treatment; for % Regression: D28 Mean: 10 mg/kg, day 28; for Mean Tumor Volume (mm^3) at harvest: harvest after progression on continued treatment; for Day of Harvest: Mean: tumors harvested after progression
[3] = system: LNCaP/AR xenograft tumors; conditions: previously shown (Clegg et al., 2012; Tran et al., 2009); cited from earlier work
[4] = in vivo; cited from earlier work
GR [5] = molecular target: GR (Homo sapiens, UniProt P04150); conditions: patients with Cushing syndrome; cited from earlier work
GR (Homo sapiens, UniProt P04150), sequence (P04150 whole entry): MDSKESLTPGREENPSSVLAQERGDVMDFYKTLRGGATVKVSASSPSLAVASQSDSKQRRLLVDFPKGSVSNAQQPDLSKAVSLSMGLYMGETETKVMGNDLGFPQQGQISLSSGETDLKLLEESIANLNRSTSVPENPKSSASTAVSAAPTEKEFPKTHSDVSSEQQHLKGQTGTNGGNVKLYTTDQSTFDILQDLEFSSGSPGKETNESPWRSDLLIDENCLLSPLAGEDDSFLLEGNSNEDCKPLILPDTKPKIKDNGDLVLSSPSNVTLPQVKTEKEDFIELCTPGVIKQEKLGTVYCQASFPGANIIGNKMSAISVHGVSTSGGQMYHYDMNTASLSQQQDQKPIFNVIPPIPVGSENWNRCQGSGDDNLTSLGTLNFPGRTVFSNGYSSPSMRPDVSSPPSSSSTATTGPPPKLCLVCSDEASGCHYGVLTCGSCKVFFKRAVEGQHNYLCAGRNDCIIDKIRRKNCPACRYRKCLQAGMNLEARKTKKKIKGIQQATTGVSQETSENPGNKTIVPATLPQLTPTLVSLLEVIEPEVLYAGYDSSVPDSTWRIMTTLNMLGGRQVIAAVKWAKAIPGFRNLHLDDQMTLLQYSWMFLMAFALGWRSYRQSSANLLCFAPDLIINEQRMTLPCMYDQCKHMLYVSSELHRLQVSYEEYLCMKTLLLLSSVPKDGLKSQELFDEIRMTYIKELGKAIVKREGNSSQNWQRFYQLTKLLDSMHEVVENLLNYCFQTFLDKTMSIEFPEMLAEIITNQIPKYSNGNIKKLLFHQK

GR mRNA (NR3C1) = test: GR mRNA (RT-qPCR) in LNCaP/AR xenograft tumors, validation cohort; format: in vivo, mice; set-up: key: expression relative to beta-actin or GAPDH; conditions: individual tumor with acquired resistance to the drug (10 mg/kg), relative expression
Description: (§1) RNA was extracted from cell lines using the RNeasy kit (Qiagen). Frozen tumors were lysed with lysing matrix A using the Fast-Prep24 tissue homogenizer system (MP BIOMEDICALS) in Trizol (Invitrogen) followed by clean up with RNeasy (Qiagen). cDNA was generated with the High Capacity cDNA Reverse Transcription Kit (Applied Biosystems.) Data was quantified relative to either beta Actin or GAPDH expression and relative expression was generally plotted. Primers for ACTB (PPH00073E), NDRG1(PPH02202B), NR3C1(PPH02652A), and SGK1(PPH00387E), STK39 (PPH14239B), GRB10 (PPH05866B), TIPARP (PPH07883A), PMEPA1 (PPH01013B) were purchased from SA Biosciences. Other qPCR primers are as follows: […]

GR [6] = test: Bone marrow evaluation: GR IHC of tumor cells in patients receiving enzalutamide; format: in vivo; conditions: bone metastases, enzalutamide 160 mg daily
Procedure: Patients were treated with enzalutamide 160 mg daily. Bone marrow biopsy and aspirate (˜5 mL) were performed before treatment and at week 8. The bone marrow specimens were obtained by transiliac biopsy, and samples were processed according to standard MD Anderson Cancer Center decalcification and fixation procedures. After pathologic evaluation, samples were stored in the MD Anderson Cancer Center Prostate Cancer Tissue Bank. Imaging studies were performed at the time of suspected prostate cancer progression or at the treating physician's discretion, but generally not prior to 12 weeks post-treatment initiation. […] Retrospective analysis for GR was performed by IHC on […] formalin-fixed, paraffin-embedded bone marrow biopsy sections with anti-GR at a dilution of 1:200 (BD Transduction Laboratories #611227). A Dako autostainer and standard 3,3-diaminobenzidine were used. GR expression was assessed in a blinded fashion by two pathologists scoring at least 100 tumor cells per specimen. Plotted are either data from all specimens or only from patients with usable material at baseline and 8 weeks.

PSA = test: Maximal PSA decline in patients receiving enzalutamide; format: in vivo; conditions: enzalutamide 160 mg daily
[7] = system: AR target genes in LREX′ cell line; test: Expression of AR target genes in LREX′ cell line (RT-qPCR); format: cell-based
Description: A. Normalized expression array signal (Illumina HT-12) of a suite of 74 AR target genes in control (n=10), 4 day (n=8), and LREX′ (n=8, right) xenograft tumors. Genes are ranked by degree of restoration of expression in resistant tissue ((Res-4 day)/(Control-4 day)). All resistant tissues were continued on anti-androgen treatment through time of harvest. B. Fractional restoration values of each of the 74 AR targets in LREX′ xenografts (n=8) or resistant tissues from the validation cohort (n=12, see also FIG. S3). C. GR mRNA in resistant tissues used in B. D. Expression of AR target genes in the LREX′ cell line in steroid depleted media after 8 hours of treatment with the indicated agonists, in vitro. Enzalutamide=10 micromolar, V=Vehicle.+/−s.e.m. See also FIGS. S3, S4.
A. LnCaP/AR cells engineered to express GFP or GR were treated with indicated drugs. […] D. Control or AR siRNA knock-down in LREX′ followed by treatment with indicated drugs. […] Cells were treated in charcoal stripped media. Expression determined by RT-qPCR+/−s.e.m.
LREX′ cells were derived from a single enzalutamide resistant tumor that was harvested, disaggregated with collagenase treatment, and then maintained in RPMI supplemented with 20% FBS and 1 μM enzalutamide. Cells were initially grown on collagen-coated flasks until confluent and then were maintained on standard tissue culture dishes. CS1 were similarly derived from vehicle treated tumors and maintained in standard LNCaP/AR media. LNCaP/AR and LREX′ cells were cultured in phenol-red free RPMI with 10% charcoal-stripped FBS prior to drug treatments.
as §1

LREX′ cells = test: Expression profiling (global transcriptome) of LREX′ cells; format: cell-based; conditions: enzalutamide 10 micromolar
VCaP cells [8] = test: VCaP in vitro growth assay (CellTiter-Glo); format: cell-based; conditions: Enz 10 micromolar, standard culture conditions
Procedure: Enz=10 micromolar, Dex=100 nM, CMP 15=1 micromolar. A. Western blot analysis of prostate cancer cell lines. B, C and D. Cell viability assessed by CellTiter-Glo (Promega) assay and normalized to day 1 value after indicated treatments+/−s.e.m. E. Confirmation of GR knock-down by western blot after infection with GR targeting shRNA. F. Apoptosis as assessed by cPARP western blot after 3 days of indicated treatment. G. A suite of AR targets relevant to VCaP was defined (see methods) and normalized expression of each gene after 24 hours of indicated drug treatments is depicted by heat map and ranked by degree of induction with Dex. H. Expression of the top two genes from […]. (KLK2 and FKBP5) after 24 hours of indicated treatments+/−s.e.m. See also FIG. S6.
Viability is plotted normalized to day 1.

GR mRNA [9] = test: GR mRNA in LREX′ xenografts after enzalutamide discontinuation; format: in vivo, mice; conditions: 8 days after discontinuation, after 7 weeks of 10 mg/kg
Description: (§2) A. GR mRNA in LREX′ xenografts. […] . […] C. […] AUC=area under curve. […] . […] See also FIG. S7.
as §1

GR mRNA [10] = test: GR mRNA in LREX′ cell line in vitro; format: cell-based
Description: as §2, §1

VCaP cells [11] = conditions: Tran et al., 2009; cited from earlier work
[12] = Tran et al., 2009; cited from earlier work
DU145 and PC3 cells = conditions: AR-negative cells; cited from earlier work
LnCaP/AR and sub-lines = test: In vitro growth by cell counting (Vi-cell); conditions: 1 micromolar, FIG. S7B
Procedure: B. Relative cell numbers determined by cell counting (Vi-cell) of indicated cells with vehicle or 1 micro-molar enzalutamide treatment.
LnCaP/AR and sub-lines: Equivalent numbers of cells were plated and then harvested and counted in triplicate at indicated time points using the Beckman Coulter Vi-Cell XR. Cells were passaged at each time point and identical numbers of cells re-plated. Fold increase in cell numbers were determined for each time interval.

[13] = system: GR protein in LREX′ cells; test: Intracellular GR flow cytometric analysis of LREX′ cells
Procedure: (§3) E. Intracellular GR flow cytometric analysis of indicated cells at indicated times points.
(§4) Cells were re-suspended in Fixation/Permeabilization working solution (eBioscience; San Diego, Calif., USA) at a concentration of 1-2×10^6 cells/ml for 30 minutes at room temperature. The cells were subsequently stained with primary antibodies, Rabbit (DA1E) mAb IgG XP® Isotype Control, androgen receptor (D6F11) XP® Rabbit mAb, or glucocorticoid receptor (D6H2L) XP® Rabbit mAb (Cell Signaling Technology; Danvers, Mass., USA) for 20 minutes at room temperature. The cells were washed twice with Flow Cytometry Staining Buffer (eBioscience; San Diego, Calif., USA), and then stained with secondary antibody, Allophycocyanin-AffiniPure F(ab′)2 Fragment Donkey Anti-Rabbit IgG (Jackson ImmunoResearch Laboratories, Inc.; Westgrove, Pa., USA) for 20 minutes at room temperature. Following two more washes, the cells were re-suspended in Flow Cytometry Staining Buffer and analyzed by flow cytometry on a LSRII (BD Biosciences; San Jose, Calif., USA) using FlowJo software (Tree Star, Ashland, Oreg., USA). For GR staining, cells were maintained in their standard media and treated with dexamethasone for 20 minutes prior to harvest to fully expose antigen.

[14] = system: GR protein in CS1 or LnCaP/AR; test: Intracellular GR flow cytometric analysis of CS1 or LnCaP/AR cells; conditions: enzalutamide 1 micromolar, 4 week experiment
Procedure: as §3, §4

[15] = enzalutamide 10 micromolar, 8 hours
[16] = LREX′^off, enzalutamide 1 micromolar
[17] = steroid depleted media, 8 hours

CC#C[C@]1(O)CCC2C3CCC4=CC(=O)CCC4=C3[C@@H](c3ccc4c(c3)OCO4)C[C@@]21C (stereo partly drawn) [ORG34517]
effect on AR target gene expression [1]: activate

CNC(=O)c1ccc(N2C(=S)N(c3ccc(C#N)c(C(F)(F)F)c3)C(=O)C23CCC3)cc1F [RD162]
Mean Tumor Volume (mm^3): Day 0 [2]: 379 mm^3 | % Regression: D28 Mean [2]: 80% | Mean Tumor Volume (mm^3) at harvest [2]: 554 mm^3 | Day of Harvest: Mean [2]: D173 days | LNCaP/AR xenograft tumors during the first 28 days of treatment [3]: regress

CC(C)C(=O)Nc1ccc([N+](=O)[O-])c(C(F)(F)F)c1 [flutamide]
Distribution: Protein-binding [4]: Distribution: Protein-binding: 90% | Excretion [4]: Urine, faeces (small amounts)

CC#C[C@]1(O)CC[C@H]2[C@@H]3CCC4=CC(=O)CCC4=C3[C@@H](c3ccc(N(C)C)cc3)C[C@@]21C [mefipristone]
effect on AR target gene expression [1]: activate | risk-benefit of GR inhibition in humans (GR [5]): acceptable risk-benefit profile

CNC(=O)c1ccc(N2C(=S)N(c3ccc(C#N)c(C(F)(F)F)c3)C(=O)C2(C)C)cc1F [enzalutamide]
GR mRNA Expression (GR mRNA (NR3C1); listed as Enz): 29.8 and 24.2 and 24.0 and 14.3 and 0.5 and 127.7 and 53.0 | mean percentage of GR positive cells at 8 weeks, poor responders (GR [6]): 29% | percentage of GR-positive cells at 8 weeks, good responders (GR [6]): 10% | good responders with maximal PSA decline greater than 50% (PSA; benefit for greater than 6 months): 11 of 13 | poor responders with maximal PSA decline greater than 50% (PSA; discontinued earlier than 6 months): 1 of 14 | effect on Dex activity at AR target genes ([7]; enzalutamide 10 micromolar): did not notably affect | effect on DHT regulation of the 8 genes [7, 15]: blocked | effect on Dex-induced gene expression (heatmap) (LREX′ cells): not impacted | growth of VCaP cells (VCaP cells [8]): inhibited growth | drop of GR mRNA levels after treatment discontinuation (GR mRNA [9]): ~5 fold | GR mRNA levels after withdrawal in vitro (GR mRNA [10]; LREX′ passaged without enzalutamide, 23 days): dropped as early as 1 day after discontinuation and continued to decline throughout the 23 days | effect of co-treatment on DHT reduction of GR mRNA (GR mRNA [10]; [15]): reversed | LNCaP/AR xenograft tumors during the first 28 days of treatment [3]: regress | sensitivity of VCaP cells in vitro (VCaP cells [11]): enzalutamide-sensitive | half-life in mice [12]: prolonged half-life | sensitivity of DU145 and PC3 cells (DU145 and PC3 cells): resistant | antiproliferative effect in vitro (LnCaP/AR and sub-lines): weak antiproliferative effect | half-life of exponential decay in median GR protein signal upon withdrawal ([13]; LREX′ after enzalutamide withdrawal): 182 h | GR expression after continued drug exposure for 7 weeks [13, 16]: clear shift in GR expression in essentially all cells | doubling time of GR expression on re-exposure [13, 16]: 6.8 days | time to plateau in loss of GR expression upon withdrawal ([13]; followed to 17 weeks): ≤ 7 weeks | median GR expression intensity ([14]; cells not previously exposed): no change | area under the GR staining population [14]: did increase

C[C@]12CCC(=O)C[C@@H]1CC[C@@H]1[C@@H]2CC[C@]2(C)[C@@H](O)CC[C@@H]12 [DHT, dihydrotestosterone]
expression of 7 AR targets and PSA (8 genes) [7, 17]: regulated | expression of KLK3 (PSA) [7, 17]: comparably induced | GR mRNA levels after DHT exposure (GR mRNA [10]; charcoal stripped media, 8 hours): reduced

CNC(=O)c1ccc(N2C(=S)N(c3cnc(C#N)c(C(F)(F)F)c3)C(=O)C23CCC3)cc1F [ARN-509]
Mean Tumor Volume (mm^3): Day 0 [2]: 341 mm^3 | % Regression: D28 Mean [2]: 71% | Mean Tumor Volume (mm^3) at harvest [2]: 337 mm^3 | Day of Harvest: Mean [2]: D145 days | GR mRNA Expression (GR mRNA (NR3C1); listed as ARN): 47.4 and 41.6 and 30.2 and 14.5 and 11.4 and 1.4 and 0.8 and 172.1 and 103.8 | LNCaP/AR xenograft tumors during the first 28 days of treatment [3]: regress
